Laboratory results taken from patent US20160175401A1, “COMPOITIONS AND METHODS FOR MODULATING THERMOGENESIS USING PTH-RELATED AND EGF-RELATED COMPOUNDS” (DANA-FARBER CANCER INSTITUTE INC., priority 2013, published 2016).
“Also recorded” adds a separate entry of the source.

Legend:
Format in all cases: cell-based, mouse
primary white adipocytes [1] = assay: Thermogenic gene expression (qRT-PCR) in primary white adipocytes; details: for effect on Ucp1 expression / thermogenic gene expression by EGF proteins: 1 μg/mL or 100 ng/mL, primary white adipocytes (FIG. 14A); for effect on Ucp1 expression / thermogenic gene expression by EGF proteins / induce thermogenic gene expression, such as that of Ucp1 and Dio2: 24 hours; for induce thermogenic gene expression, such as that of Ucp1 and Dio2: 1 μg/mL of the protein, primary white adipocytes (FIG. 6, FIG. 19E)
Protocol: Inguinal SV fractions were obtained from 30-35 days-old male mice by the following procedure. Inguinal fat tissue was dissected, washed with PBS, minced and digested for 45 min at 37° C. in PBS containing 10 mM CaCl, 2.4 U/mL dispase II (Roche), and 1.5 U/mL collagenase D (Roche). Digested tissue was filtered through a 100-μm cell strainer and centrifuged at 600 g for 5 min to pellet the SV cells which were then resuspended in SV culture medium (DMEM/F12 [1:1; Invitrogen] plus glutamax, pen/strep, and 10% FBS), filtered through a 40-μm cell strainer, centrifugation as above, resuspended in SV culture medium and plated. SV cells were grown to confluency for adipocyte differentiation which was induced by the adipogenic cocktail containing 1 μM dexamethasone, 5 μg/mL insulin, […] isobutylmethylxanthine (DMI), and 1 μM rosiglitazone in SV culture medium. 2 days after induction, cells were maintained in SV culture medium containing 5 μg/mL insulin and 1 μM rosiglitazone. Starting at day 6, cells were maintained in SV culture medium only and treated with various molecules for […] and harvested at day 8.
LLC cells were maintained in DMEM (Invitrogen) with 10% FBS and pen/strep. For conditioned media collection, cells were plated at ⅓ confluency. The following day, medium is changed to FreeStyle expression medium (Invitrogen) which was collected 24 hours later. For concentration of expression medium, LLC conditioned media was filtered using a 3 kilodalton (Kd) cut-off filter (Millipore). Adipocytes were maintained in SV culture media (DMEM/F12 [1:1; Invitrogen] plus glutamax, pen/strep, and 10% FBS) and conditioned media treatment experiments were performed 7 days post-differentiation. When adipocytes were treated with conditioned media for 24 hours, the treatment media were composed of 50% SV culturing medium and 50% LLC conditioned media. When conditioned medium was filtered and concentrated, adipocytes were exposed to 90% SV culturing medium and 10% concentrated LLC conditioned media.
RNA was extracted from cultured cells or frozen tissue samples using TRIzol (Invitrogen), purified with Qiagen RNAeasy minicolums and reverse transcribed using High Capacity cDNA Reverse Transcription kit (Applied Biosystems). Resulting cDNA was analyzed by RT-qPCR. Briefly, 25 ng of cDNA and […] of each primer were mixed with SYBR® GreenER™ PCR Master Mix (Invitrogen). Reactions were performed in 384-well format using an ABI PRISM® 7900HT instrument (Applied Biosystems). Relative mRNA levels were calculated using the comparative CT method normalized to cyclophilin.
Inguinal stroma-vascular fractions were obtained from 30-35-day-old male mice using the following procedure: Inguinal fat tissue was dissected, washed with PBS, minced and digested for 45 min at 37° C. in PBS containing 10 mM CaCl2, 2.4 Uml^−1 dispase 11 (Roche) and 1.5 U ml^−1 collagenaseD (Roche). Digested tissue was filtered through a 100-μm cell strainer and centrifuged at 600 g for 5 min to pellet the stroma-vascular cells. The pellets were then resuspended in adipocyte culture medium (DMEM/F2 (1:1, Invitrogen) plus GlutaMAX, penicillin and streptomycin, and 10% FBS), filtered through a 40-μm cell strainer, centrifuged as above, resuspended in adipocyte culture medium and plated. The stroma-vascular cells were grown to confluence for adipocyte differentiation, which was induced by an adipogenic cocktail containing 1 μM dexamethasone, 5 μg ml^−1 insulin, […] isobutylmethylxanthine (DMI) and 1 μM rosiglitazone in adipocyte culture medium. Two days after induction, cells were maintained in adipocyte culture medium containing 5 μg ml^−1 insulin and 1 μM rosiglitazone. Starting on day 6, cells were maintained in adipocyte culture medium only and treated with various molecules for 2-24 h and harvested on day 8.
LLC cells were maintained in DMEM (Invitrogen) with 10% FBS, and penicillin and streptomycin. For conditioned medium collection, cells were plated at a 1:3 confluence.

primary white adipocytes [2] = assay: Cellular oxygen consumption rate (XF24 Extracellular Flux Analyzer, Seahorse) of primary adipocytes
Protocol: The cellular oxygen consumption rate (OCR) of primary adipocytes was determined using an XF24 Extracellular Flux Analyzer (Seahorse Bioscience). […] Twenty-four hours later, adipocyte culture medium was changed to DMEM lacking NaHCO3 but containing 10 mM glucose, 1 mM pyruvate and the treatment chemicals. The uncoupled and maximal OCRs were determined using […] (carbonyl cyanide p-trifluoromethoxyphenylhydrazone), respectively. Complex-1-dependent respiration was inhibited with 3 μM rotenone. Ex vivo tissue respiration was measured using a Clark electrode (Strathkelvin Instruments) as described in Cohen et al. (2014) Cell 156:304-316. Freshly isolated tissues were briefly minced and transferred to the electrode chamber containing a respiration buffer consisting of 1×DPBS (Delbecco's phosphate-buffered saline), 2% BSA, 25 mM glucose and 1 mM pyruvate. Oxygen consumption values were normalized to tissue weight.

[3] = tested on: PKA substrates CREB and HSL; assay: PKA signalling: protein phosphorylation by western blotting in primary adipocytes
Protocol: UCP1 protein levels were measured by western blotting in white (FIG. 23A) and brown (FIG. 23B) adipocytes. […] Real-time triplicate readings (upper panel) and their averages (lower panel) are shown (n=4). […] The values are mean±s.e.m. Statistical analysis was conducted using the two-tailed t-test. *, P<0.05; **, P<0.005; ***, P<0.0005, compared with the control group.
(§1) Cells were homogenized in a lysis buffer containing 50 mMTris (pH 7.4), 500 mM NaCl, 1% NP40, 20% glycerol, 5 mM EDTA and 1 mM phenylmethylsulphonyl fluoride (PMSF) supplemented with protease and phosphatase inhibitor cocktails (Roche). The homogenates were centrifuged at 13,000 r.p.m. for 10 min, and the supernatants were used as whole-cell lysates. Protein concentration was determined by Bio-Rad protein assay, and […] protein lysate was separated in each SDS-PAGE lane. The separated proteins were transferred to a polyvinylidene difluoride (PVDF)membrane, which was blotted with antibodies in TBS containing 0.05% Tween (TBS-T) and 5% BSA. For secondary antibody incubation. TBS-T containing 5% milk was used. Enhanced chemiluminescence (ECL) western blotting substrates (Pierce) were used for visualization of the results.

UCP1 = UCP1 protein levels by western blotting in primary adipocytes
Protocol: Cells were homogenized in a lysis buffer containing 50 mM Tris (pH 7.4), 500 mM NaCl, 1% NP40, 20% glycerol, 5 mM EDTA and 1 mM PMSF, supplemented with protease and phosphatase inhibitor cocktails (Roche). The homogenates were centrifuges at 13,000 rpm for 10 min and the supernatants were used as whole cell lysates. Protein concentration was determined by Bio-Rad Bradford assay and 50 μg of proteins were used in each SDS-PAGE run. PVDF membrane was blotted with UCP1 antibody (Abeam) in TBS containing 0.05% Tween and 5% BSA. For secondary antibody incubation, TBS-T containing 5% milk was used. ECL western blotting substrates from Pierce were used for visualization of the results.
as §1

With “TGFA: recombinant human TGFA (Val40-Ala89; Catalog No. 239-A-100), R&D Systems” the “effect on Ucp1 expression / thermogenic gene expression by EGF proteins” value (primary white adipocytes [1]) was “largest effect on Ucp1 expression”.

`NC[C@H](O)c1ccc(O)c(O)c1` [norepinephrine, reference compound] was tested, and the “oxygen consumption, including basal, uncoupled and maximal respiration” value (primary white adipocytes [2]; 100 nM NE, 100 ng ml^−1 PTHrP or PTH, 24 h (FIG. 23C)) was “significantly raised oxygen consumption”, the “uncoupled respiration and maximal respiration potential” value (primary white adipocytes [2]; 24 hour treatment, norepinephrine 100 nM, peptides 100 ng/mL, SeaHorse (FIG. 8D)) was “significantly elevate” and the “phosphorylation of the PKA substrates CREB and HSL” value ([3]; 100 nM NE, 100 ng ml^−1 PTHrP or PTH, 30 min, primary white and brown adipocytes (FIG. 23D-23E)) was “stimulated the phosphorylation”. For the same molecule, the UCP1 protein levels (UCP1; 100 nM NE, 100 ng ml^−1 PTHrP or PTH, 24 h, primary white and brown adipocytes (FIG. 23A-23B)) was “comparably increased UCP1 protein levels” and the UCP1 protein levels (UCP1; 24 hour treatment, norepinephrine 100 nM, peptides 100 ng/mL, western blotting (FIG. 8D)) was “significantly increased”.

With `O=S(=O)(NCCNC/C=C/c1ccc(Br)cc1)c1cccc2cnccc12` [H89, reference compound] the PKA signalling ([3]; H89 50 μM white, 30 μM brown adipocytes, pretreated 1 h (FIG. 23D-23E)) was “blocked PKA signalling” and the “transcriptional regulation (Ucp1, Dio2) by noradrenaline, PTHrP and PTH” value (primary white adipocytes [1]; H89 50 μM white, 30 μM brown adipocytes, factors 2 h (FIG. 23F-23G)) was “completely inhibited transcriptional regulation”.

In the case of `C=CC(=O)Nc1ccc2ncnc(Nc3ccc(OCc4cccc(F)c4)c(Cl)c3)c2c1` [AST-1306, reference compound], the “effect on LLC cell conditioned media thermogenic (browning) activity” value (primary white adipocytes [1]; AST-1306 1 μM, LLC-cell-conditioned medium, 24 h (FIG. 14C, 21A)) is reported as “does not inhibit or affect; also recorded: does not block; also recorded: largely unaffected” and the “inhibition of BTC, EREG and HBEGF activity (Ucp1 mRNA induction)” value (primary white adipocytes [1]; AST-1306 1 μM, BTC, EREG, HBEGF 100 ng/ml each, 24 h (FIG. 14B, 20C)) is reported as “inhibit BTC, EREG and HBEGF activity; also recorded: completely blocked Ucp1 mRNA induction”.

For “EREG: recombinant mouse EREG (Val56-Leu101; Catalog No. 1068-EP/CF), R&D Systems”, the “induce thermogenic gene expression, such as that of Ucp1 and Dio2” value (“induce thermogenic gene expression, such” below) (primary white adipocytes [1]) was “most potent proteins to induce thermogenic gene expression; also recorded: most potent proteins for inducing thermogenic gene expression; also recorded: induced Ucp1 expression” and the “effect on Ucp1 expression / thermogenic gene expression by EGF proteins” value (primary white adipocytes [1]) was “largest effect on Ucp1 expression”.

B1: HBEGF: recombinant human HBEGF (Met1-Leu148; Catalog No. 259-HE-050/CF), R&D Systems (protein)
chain: LVTGESLERLRRGLAAGTSNPDPPTVSTDQLLPLGGGRDRKVRDLQEADLDLLRVTLSSKPQALATPNKEEHGKRKKKGKGLGKKRDPCLRKYKDFCIHGECKYVKELRAPSCICHPGYHGERCHGLSL
For B1, the “induce thermogenic gene expression, such” value (primary white adipocytes [1]) was “most potent proteins for inducing thermogenic gene expression; also recorded: induced Ucp1 expression”, the “induce thermogenic gene expression, such” value (primary white adipocytes [1]; listed as HB-EGF) was “most potent proteins to induce thermogenic gene expression” and the “effect on Ucp1 expression / thermogenic gene expression by EGF proteins” value (primary white adipocytes [1]) was “largest effect on Ucp1 expression”.

B2: BTC: recombinant mouse BTC (Asp32-Gln118; Catalog No. 1025-CE-025/CF), R&D Systems (protein)
chain: DGNTTRTPETNGSLCGAPGENCTGTTPRQKVKTHFSRCPKQYKHYCIHGRCRFVVDEQTPSCICEKGYFGARCERVDLFYLQQDRGQ
With B2 the “induce thermogenic gene expression, such” value (primary white adipocytes [1]) was “most potent proteins to induce thermogenic gene expression; also recorded: most potent proteins for inducing thermogenic gene expression; also recorded: induced Ucp1 expression”.
